# Assay results reported in patent US20230381237A1, “CHIMERIC ANTIGEN RECEPTOR (CAR) T-CELL ADJUVANT THERAPIES” (priority 2022, published 2023).
# “Also recorded” adds a separate entry of the source.
# Columns and labels:
# TNF-α = conditions: patients with diabetes; doses within dose equivalencies of CTO1681 MAD study; cited from earlier work
# [1] = test system: PBMCs activated through TLR-3; assay: TNFα production in Poly r(I:C)-activated PBMCs (sandwich ELISA); conditions: 0.3 nM to 750 nM
# Raji-luc tumor cells = assay: CAR T-cell efficacy in NSG tumor bearing mice; assay type: in vivo
# Experimental: Human T-cells expressing CD19-CD28-CD3Z CAR construct was used in this experiment.
# 6-7 week old NSG™ (NOD SCID gamma) mice were engrafted with 1×10^6 luciferase (luc) expressing Raji tumor cells (herein referred to as “Raji-luc” tumor cells) each on Day 1 to allow for tumor growth over a 7-day period prior to the commencement of the treatment. CAR T-cell infusion was performed intravenously via lateral tail vein on (5×10^6 CD19 CAR T-cells generated from healthy donors). NSG mice are severely immunodeficient, which facilitates ready tumor engraftment and subsequent clearance due to CAR T-cells can be measured.
# Tumor growth after engraftment and subsequent clearance were monitored once weekly (starting on Day 7) using IVIS imaging to detect luciferase signal in living mice. […] CTO1681 doses were selected based on the pharmacokinetic profile of the drug in mice. Control groups included mice receiving Raji-luc tumor cells without CAR T-cell treatment, mice receiving Raji-luc tumor cells and a CAR T-cell infusion, and mice receiving Raji-luc tumor cells with vehicle treatments. Mice were monitored for body temperature and health evaluations (weight, movement, posture, fur condition, etc.) throughout the entire study.
# [2] = test system: circulating cytokines (TNFα); assay: Serum cytokine measurements after CTO1681 treatment in African Green Monkeys; assay type: in vivo; conditions: highest dose of CTO1681 compared to the other two cohorts
# Source text: Longitudinal serum samples were taken through the course of the observation period. At the end of all three cohorts serum samples were utilized to determine circulating concentrations of 12 different cytokines. Representative data is pictured below for TNFα, a key central cytokine in CRS (FIG. 6). […] Overall there appears to be a dose-dependent trend to cytokine reduction.
# [3] = test system: CD19 CAR T-cells co-cultured with CD19+Raji lymphoma target cells; assay: CD19 CAR T-cell / Raji co-culture, pro-inflammatory cytokine levels; assay type: cell-based, human
# [4] = Example 4: treatment with predetermined delay period; assay type: in vivo, human; conditions: mantle cell lymphoma; start three days after CAR T-cells, eleven days
# Source text: Both groups will receive infusion of CAR T-cells. […] Cytokines will be monitored daily for both groups.
# Food effect = assay type: in vivo; conditions: oral tablets
# CD19+Raji tumor cells = assay: CD19 CAR T-cell killing of Raji target cells (flow cytometry, 7-AAD); assay type: cell-based, human; conditions: in vitro; Effector:Target 10:1, 5:1, 1:1; all concentrations; monosodium salt
# [5] = Example 3: human treatment with no delay period; assay type: in vivo; conditions: B-cell lymphoma, daily for 7-15 days
# Source text: Both groups will receive infusion of CAR T-cells. […] Clinical signs of CRS and cytokines will be monitored daily for both groups.
# [6] = Pharmacokinetics in African Green Monkeys, TID oral gavage; assay type: in vivo
# Experimental: (§1) Individual Animal Metrics—Nine African green monkeys (approximately 16 years old, wild-caught) were used in this PK study. Per requirements of the CDC, all animals were quarantined at a CDC facility for 30 days followed by a 90-day quarantine/acclimation period at TNPRC prior to study initiation. Animals were dosed three times daily (TID) by oral gavage in three separate rounds of the study (ascending dose concentrations). Individual animal weights were tracked throughout the entirety of the study. On average, weights decreased 5.5% across all cohorts, with no individual animal losing more than 8.7% of its initial body weight over the course of the study. No difference in mean weight change is observed between male and female monkeys. […] Ultimately, the animals handled the schedule well, all remaining in good health with a weight loss of no more than what was expected by the veterinary staff with the schedule intensity.
# Individual animal profiles were evaluated following each dose on a single day of dosing. Single day TID doses were administered using the same animals following a minimum of 7 days wash out between increasing dose level rounds, where Round 1 was TID 0.008 mg/kg/day (0.00267 mg/kg/dose), Round 2 was TID 0.04 mg/kg/day (0.0133 mg/kg/dose), and Round 3 was TID 0.2 mg/kg/day (0.0667 mg/kg/dose). Wash out (negative) plasma levels of CTO1681 between dose rounds were confirmed. […] Samples were collected at the following target timepoints relative to the first TID dose of the day: 0.25, 0.5, 1, 2, 4, and 8 hours (prior to second daily dose), 8.25, 8.5, 9, 10, 12, and 16 hours (prior to third daily dose), 16.25, 16.5, 17, 18, 20, 24, 28 and 40 hours after TID test item administration by oral gavage dosing, with the three daily doses administered at 0, 8 and 16 h in 9 animals, staggered for n=3 collection after administration of each daily dose. […]
# [7] = Example 5: treatment with monitored delay period; assay type: in vivo, human; conditions: acute myeloid leukemia; start upon cytokine increase, ten days
# Source text: Both groups will receive infusion of CAR T-cells. Cytokines will be monitored daily for both groups. […] Treatment with CTO1681 will continue daily for ten days.
# [8] = Phase 1 multiple ascending, repeat-dosing study in healthy volunteers
# [9] = Single dose PK study in BALB/C mice; assay type: in vivo, murine (BALB/C)
# influenza (H1N1) = assay: In vivo lethal influenza H1N1 studies, cytokine levels; parameters: species or system mice
# [10] = Example 2: mouse model of CAR T-cell therapy induced CRS; conditions: IP, BID for 7 days
# influenza (H5N1) = conditions: in vivo; cited from earlier work
# [11] = Body weight and tolerability in African green monkey PK study; assay type: in vivo, African green monkeys
# Experimental: as §1
# [12] = BID dose PK study in NSG mice (CAS-2201); assay type: in vivo, murine (NSG)
# [13] = 10:1 ratio of Effectors to Target cells, CTO1681 0.36-225 nM, 24 hours
# [14] = CytoAgents in vivo influenza (H1N1) studies
smiles,measurement,setting,value
"CC#CCC(C)C(O)C=CC1C(O)CC2Oc3c(CCCC(=O)[O-])cccc3C21.[Na+] (centres unmarked) [beraprost sodium, 2,3,3a,8b-tetrahydro-2-hydroxyl-1-(3-hydroxyl-4-methyl-1-octen-6-ynyl)-1H-cyclopenta[b]benzofuran-5-butanoic acid, sodium salt]",TNF-α,TNF-α,significant reductions
"CC#CCC(C)[C@H](O)/C=C/[C@@H]1[C@H]2c3cccc(CCCC(=O)O)c3O[C@H]2C[C@H]1O (some centres unmarked) [Beraprost, reference compound]",EC50,"[1]; PBMC, Replicate 1",17.1 nM
same,EC50,"[1]; PBMC, Replicate 2",8.64 nM
same,EC50,"[1]; PBMC, Replicate 3",17.1 nM
"CC#CC[C@H](C)[C@H](O)/C=C/[C@@H]1[C@H]2c3cccc(CCCC(=O)[O-])c3O[C@H]2C[C@H]1O.[Na+] [CTO1681, (+)-[1R, 2R, 3aS, 8bS]-2,3,3a,8b-tetrahydro-2-hydroxy-1-[(E)-(3S,4S)-3-hydroxy-4-methyl-1-octen-6-ynyl)-1Hcyclopenta[b]benzofuran-5-butanoic acid, monosodium salt]",Effect on CD19 CAR T-cell activity (reduction of lymphoma tumor burden),"Raji-luc tumor cells; 0.3, 0.2 or 0.15 mg/kg/d BID for 14 days, Day 15, monosodium salt",does not interfere; also recorded: did not affect
same,"Clinical morbidities, including weight loss or limb movement","Raji-luc tumor cells; NSG mice, with CAR T-cell therapy",did not cause any increase
same,Cytokine levels in serum (TNFα representative),[2],remarkable and consistent reduction
same,Maximum reduction of IFN-γ,[3]; [13],~26%
same,Maximum reduction of TL-6,[3]; [13],~23%
same,Maximum reduction of TNF-α,[3]; [13],approximately 50%
same,Levels of IL-6,[3]; CAR T-cells and Raji cells at a 10:1 ratio (FIG. 1A),dose-dependently lowers
same,Levels of TNF-α,[3]; CAR T-cells and Raji cells at a 10:1 ratio (FIG. 1B),dose-dependently lowers
same,Levels of IFN-γ,[3]; CAR T-cells and Raji cells at a 10:1 ratio (FIG. 1C),dose-dependently lowers
same,CRS symptoms vs control group,[4],reduced CRS symptoms
same,Undesired cytokine production vs control group,[4],lower undesired cytokine production
same,Food effect,Food effect,positive food effect
same,Effect on tumor/target cell killing of CD19-directed CAR T-cells,CD19+Raji tumor cells,absence of an effect; also recorded: did not impact or interfere
same,EC50,[1]; Replicate 1,5.7 nM
same,EC50,[1]; Replicate 2,4.14 nM
same,EC50,[1]; Replicate 3,1.95 nM
same,CRS symptoms vs control group,[5],reduced CRS symptoms
same,Undesired cytokine production vs control group,[5],lower undesired cytokine production
same,Tmax,"[6]; round 1, 0.008 mg/kg/day TID oral",1.5 h
same,Tmax,"[6]; round 2, 0.04 mg/kg/day TID oral",2.0 h
same,Tmax,"[6]; round 3, 0.2 mg/kg/day TID oral",2.1 h
same,CRS symptoms vs control group,[7],reduced CRS symptoms
same,Undesired cytokine production vs control group,[7],lower undesired cytokine production
same,Cytokine levels (panel of 27 cytokines),[8],no clinically significant decreases
same,"SAEs, TEAEs of special interest, TEAEs leading to study discontinuation or dose reduction","[8]; 15 to 60 μg/day, 7 days",No SAEs
same,"Treatment-emergent AEs, mild","[8]; 15 to 60 μg/day, 7 days",62 AEs
same,"Treatment-emergent AEs, moderate","[8]; 15 to 60 μg/day, 7 days",4 AEs
same,T1/2,[9],1 to 2 h
same,IL-2 level,influenza (H1N1); [14],reduced
same,IL-6 level,influenza (H1N1); [14],reduced
same,IL-10 level,influenza (H1N1); [14],reduced
same,IFN-α concentrations,influenza (H1N1); lethal H1N1 influenza infections,no significant repression
same,Comparison with dexamethasone,[10],superior to dexamethasone
same,Survival benefits over dexamethasone,[10],greater survival benefits
same,IL-2 level,influenza (H5N1),reduced
same,IL-6 level,influenza (H5N1),reduced
same,IL-8 level,influenza (H5N1),reduced
same,IL-10 level,influenza (H5N1),reduced
same,Tolerability / toxicities or negative health effects,"[11]; TID oral administration, 0.008-0.2 mg/kg/day, monosodium salt",overall tolerable; also recorded: no toxicities or negative health effects
same,Average weight decrease across all cohorts,[11]; entire study,5.5%
same,Largest individual loss of initial body weight,[11]; entire study,≤ 8.7%
same,Elimination half-life,"[12]; calculated using first daily dose, range of 6-12 h (Rsq=0.40)",1.8 h
same,T1/2 of BID exposure,[12]; two times a day (BID) dose,approximately 5 hours
